Source: patent publication EP4545548B1, “INSECT NEUROPEPTIDES” (Solasta Bio Limited, priority 2023, dated 2025)
Where a SMILES comes first, the peptide text is derived from it. [ ]: non-standard residue; d: D form. pGlu = O=C1CC[C@@H](C(=O)O)N1

Tested on: bees
Experiment: Bee oral toxicity test adapted from OECD Test No. 247 (Bumblebee, Acute Oral Toxicity Test)
Format: in vivo
Conditions: % survival after 96 hours, compared to Imidacloprid, Figure 9
Description: Bee oral testing protocol was carried out adapted from OECD Test No. 247: Bumblebee, Acute Oral Toxicity Test. The toxicity of SB-P-47 was compared with a negative control of sucrose or vehicle, and with a current commercial insecticide Imidacloprid.

CC[C@H](C)[C@H](NC(=O)[C@H](C)NC(=O)[C@@H]1CCC(=O)N1)C(=O)N[C@@H](CCSC)C(=O)N[C@@H](C)C(=O)N[C@@H](CCCNC(=N)N)C(=O)N1CCC[C@H]1C(=O)N[C@@H](CCC(N)=O)C(=O)N[C@H](C(=O)N1CCC[C@H]1C(=O)N[C@@H](CCCNC(=N)N)C(=O)N[C@@H](CC(C)C)C(N)=O)C(C)C [SB-P-47, [Pyr]-AIMARPQVPRL-[NH2]] ([pGlu]AIMARPQVPRL-NH2)
toxicity to key pollinator species such as bees: far lower toxicity
